Converted amounts (≈) assume the structure as drawn. Where two headings read alike, the source gives them in different places. Marks after values point to notes of the source that are not given here.
Legend:
Assay in all cases: microbe, parasite or virus in culture
[1] = test system: P. aeruginosa; conditions: mode of 6 replicates; for MIC: Pseudomonas aeruginosa
Procedure, shortened: (§1)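 MICs were scored by eye after 18-20 h static incubation at 37 °C, with bacteria at 5 × 10^5 CFU mL^−1 in MHB. Peptides were serially diluted 2-fold over 12 points, top 128 or 64 μg mL^−1. CAMHB (CLSI) and 1% agarose-MHB variants were also run, at least six replicates.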

[2] = test system: S. aureus; conditions: for BMD MIC: S. aureus ATCC 25923 MSSA, mode of 6 replicates
Procedure, shortened: as §1

[3] = test system: A. baumannii; conditions: mode of 6 replicates
Procedure, shortened: as §1

[4] = test system: K. pneumoniae; conditions: for MIC: Klebsiella pneumoniae
Procedure, shortened: as §1

[5] = test system: E. coli; conditions: for MIC: Escherichia coli
Procedure, shortened: as §1

[6] = test system: S. enterica Typhi
Procedure, shortened: as §1

[7] = test system: A. baumannii clinical isolates
Procedure, shortened: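 MIC90 from CLSI broth microdilution (M07-A9) in two clinical-isolate panels. US panel (331 isolates, 2010-2012): AA139 diluted in 0.01% acetic acid/0.1% BSA. Worldwide panel (445 isolates, 2011-2013, four regions): CAMHB, with 0.002% Tween 80 added for AA139 and polymyxin B.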

[8] = BAA2146, read-out: BMD MIC, K. pneumoniae BAA-2146, MDR, ESBL, NDM-1 pos, MHB, mode of 6 replicates

colistin
BMD MIC ([1]; P. aeruginosa ATCC 27853 control strain, CAMHB): 0.125 µg/mL
BMD MIC ([1]; P. aeruginosa ATCC 27853 control strain, MHB): 0.125 µg/mL
BMD MIC ([1]; P. aeruginosa FADDI-070, MDR, PmxR, MHB/CAMHB): 64 µg/mL
BMD MIC ([2]; MHB): >128 µg/mL
BMD MIC ([3]; A. baumannii ATCC 19636 type strain, CAMHB): 0.06 µg/mL
BMD MIC ([3]; A. baumannii ATCC 19636 type strain, MHB): 0.06 µg/mL
BMD MIC ([3]; A. baumannii Greece CI, XDR, PmxR, MHB): >32 µg/mL
BMD MIC ([4]; K. pneumoniae ATCC 13883 type strain (polymyxin/colistin heteroresistant), MHB, mode of 6 replicates): 0.03-4# μg mL-1
BMD MIC ([4]; K. pneumoniae ATCC 700603 (K6), MDR, OXA-2/SHV-18, CAMHB, mode of 6 replicates): 0.125 µg/mL
BMD MIC ([4]; K. pneumoniae ATCC 700603 (K6), MDR, OXA-2/SHV-18, MHB, mode of 6 replicates): 0.03 µg/mL
BMD MIC ([4]; K. pneumoniae BAA-2146, MDR, ESBL, NDM-1 pos, MHB, mode of 6 replicates): 0.06 µg/mL
BMD MIC ([4]; K. pneumoniae Greece CI 8_GR_13, XDR, KPC-2, PmxR, MHB, mode of 6 replicates): >64 µg/mL
BMD MIC ([5]; E. coli ATCC 25922 FDA control strain, CAMHB, mode of 6 replicates): 0.06 to 0.125 µg/mL
BMD MIC ([5]; E. coli ATCC 25922 FDA control strain, MHB, mode of 6 independent biological replicates): 0.25 µg/mL
BMD MIC ([5]; E. coli ATCC 700926 K12 (MG1655), CAMHB, mode of 6 replicates): ≤0.03 µg/mL
BMD MIC ([5]; E. coli ATCC 700928 CFT073 UPEC, CAMHB, mode of 6 replicates): ≤0.25 µg/mL
BMD MIC ([5]; E. coli CI 12-6-83 Hong Kong, mcr-1 pos, ESBL, CAMHB, mode of 6 replicates): 4 µg/mL
BMD MIC ([6]; S. enterica Typhi ATCC 14028 control strain, CDC 6516-60, CAMHB, mode of 6 replicates): 0.03 µg/mL
MIC ([7]; US isolates 2010-2012, isolate CID 1919446, Rep 1): 2 µg/mL
MIC ([7]; US isolates 2010-2012, isolate CID 1919446, Rep 2): 1 µg/mL
MIC ([7]; US isolates 2010-2012, isolate CID 1919519, Rep 1): 1 µg/mL
MIC ([7]; US isolates 2010-2012, isolate CID 1919519, Rep 2): 0.5 µg/mL
MIC ([7]; US isolates 2010-2012, isolate CID 1919714, Rep 1): > 32 µg/mL
MIC ([7]; US isolates 2010-2012, isolate CID 1919714, Rep 2): > 32 µg/mL
MIC ([7]; US isolates 2010-2012, isolate CID 1919942, Rep 1): 2 µg/mL
MIC ([7]; US isolates 2010-2012, isolate CID 1919942, Rep 2): 2 µg/mL
MIC ([7]; US isolates 2010-2012, isolate CID 1930670, Rep 1): 4 µg/mL
MIC ([7]; US isolates 2010-2012, isolate CID 1930670, Rep 2): 2 µg/mL
MIC ([7]; US isolates 2010-2012, isolate CID 1930676, Rep 1): 4 µg/mL
MIC ([7]; US isolates 2010-2012, isolate CID 1930676, Rep 2): 2 µg/mL
MIC ([7]; US isolates 2010-2012, isolate CID 2727597, Rep 1): > 32 µg/mL
MIC ([7]; US isolates 2010-2012, isolate CID 2727597, Rep 2): 32 µg/mL
MIC ([7]; US isolates 2010-2012, isolate CID 2727598, Rep 1): 2 µg/mL
MIC ([7]; US isolates 2010-2012, isolate CID 2727598, Rep 2): 2 µg/mL
MIC ([7]; US isolates 2010-2012, isolate CID 2727898, Rep 1): 8 µg/mL
MIC ([7]; US isolates 2010-2012, isolate CID 2727898, Rep 2): 8 µg/mL
MIC ([7]; US isolates 2010-2012, isolate CID 2728115, Rep 1): 4 µg/mL
MIC ([7]; US isolates 2010-2012, isolate CID 2728115, Rep 2): 1 µg/mL
MIC ([7]; US isolates 2010-2012, isolate CID 2728119, Rep 1): 2 µg/mL
MIC ([7]; US isolates 2010-2012, isolate CID 2728119, Rep 2): 2 µg/mL
MIC ([7]; US isolates 2010-2012, isolate CID 2728650, Rep 1): 8 µg/mL
MIC ([7]; US isolates 2010-2012, isolate CID 2728650, Rep 2): 2 µg/mL
MIC ([7]; US isolates 2010-2012, isolate CID 2728663, Rep 1): 0.5 µg/mL
MIC ([7]; US isolates 2010-2012, isolate CID 2728663, Rep 2): 0.5 µg/mL
MIC ([7]; US isolates 2010-2012, isolate CID 2732481, Rep 1): > 32 µg/mL
MIC ([7]; US isolates 2010-2012, isolate CID 2732481, Rep 2): > 32 µg/mL
MIC ([7]; US isolates 2010-2012, isolate CID 2732486, Rep 1): 1 µg/mL
MIC ([7]; US isolates 2010-2012, isolate CID 2732486, Rep 2): 1 µg/mL
MIC ([7]; US isolates 2010-2012, isolate CID 2762740, Rep 1): > 32 µg/mL
MIC ([7]; US isolates 2010-2012, isolate CID 2762740, Rep 2): 32 µg/mL
MIC ([7]; US isolates 2010-2012, isolate CID 2801947, Rep 1): 1 µg/mL
MIC ([7]; US isolates 2010-2012, isolate CID 2801947, Rep 2): 0.5 µg/mL
MIC ([7]; US isolates 2010-2012, isolate CID 2801949, Rep 1): 0.25 µg/mL
MIC ([7]; US isolates 2010-2012, isolate CID 2801949, Rep 2): 0.5 µg/mL
MIC ([7]; US isolates 2010-2012, isolate CID 2802027, Rep 1): 0.5 µg/mL
MIC ([7]; US isolates 2010-2012, isolate CID 2802027, Rep 2): 1 µg/mL
MIC ([7]; US isolates 2010-2012, isolate CID 2802028, Rep 1): 0.5 µg/mL
MIC ([7]; US isolates 2010-2012, isolate CID 2802028, Rep 2): 1 µg/mL
MIC ([7]; US isolates 2010-2012, isolate CID 2802029, Rep 1): 0.5 µg/mL
MIC ([7]; US isolates 2010-2012, isolate CID 2802029, Rep 2): 0.5 µg/mL
MIC ([7]; US isolates 2010-2012, isolate CID 2802031, Rep 1): 0.5 µg/mL
MIC ([7]; US isolates 2010-2012, isolate CID 2802031, Rep 2): 0.5 µg/mL
MIC ([7]; US isolates 2010-2012, isolate CID 2802109, Rep 2): 0.5 µg/mL
MIC ([7]; US isolates 2010-2012, isolate CID 2802111, Rep 2): 0.25 µg/mL
MIC ([7]; US isolates 2010-2012, isolate CID 2802187, Rep 1): 1 µg/mL
MIC ([7]; US isolates 2010-2012, isolate CID 2802187, Rep 2): 1 µg/mL

COc1cc(Cc2cnc(N)nc2N)cc(OC)c1OC [Trimethoprim]
MIC ([1]; read-out: BMD MIC, P. aeruginosa FADDI-070, MDR, PmxR, MHB/CAMHB): 64 µg/mL (≈ 220 µM)
BMD MIC ([2]; CAMHB): 2 µg/mL
MIC ([2]; Staphylococcus aureus, ATCC25923 / MSSA, read-out: BMD MIC): 2 µg/mL (≈ 6.89 µM)
MIC ([3]; Acinetobacter baumannii, ATCC19636, read-out: BMD MIC, A. baumannii ATCC 19636 type strain, MHB): 16 µg/mL (≈ 55.1 µM)
MIC ([4]; ATCC13883, read-out: BMD MIC): 1 µg/mL (≈ 3.44 µM)
MIC ([4]; ATCC700603, read-out: BMD MIC, K. pneumoniae ATCC 700603 (K6), MDR, OXA-2/SHV-18, MHB, mode of 6 replicates): 4 µg/mL (≈ 13.8 µM)
MIC [4, 8]: > 64 µg/mL

O=C(O)c1cn(C2CC2)c2cc(N3CCNCC3)c(F)cc2c1=O [Ciprofloxacin, ciprofloxacin]
MIC ([1]; ATCC27853, read-out: BMD MIC, P. aeruginosa ATCC 27853 control strain, CAMHB): ≤ 0.25 µg/mL
MIC ([1]; ATCC27853, read-out: BMD MIC, P. aeruginosa ATCC 27853 control strain, MHB): 0.5 µg/mL (≈ 1.51 µM)
MIC ([4]; ATCC13883, read-out: BMD MIC, K. pneumoniae ATCC 13883 type strain (polymyxin/colistin heteroresistant), MHB, mode of 6 replicates): ≤ 0.25 µg/mL
MIC [4, 8]: > 64 µg/mL
MIC ([5]; ATCC25922, read-out: BMD MIC, E. coli ATCC 25922 FDA control strain, CAMHB, mode of 6 replicates): ≤ 0.25 µg/mL
MIC ([5]; ATCC25922, read-out: BMD MIC, E. coli ATCC 25922 FDA control strain, MHB, mode of 6 independent biological replicates): ≤ 0.25 µg/mL
MIC ([5]; ATCC700926 / MG1655, read-out: BMD MIC): ≤ 0.25 µg/mL
MIC ([5]; ATCC700928, read-out: BMD MIC, E. coli ATCC 700928 CFT073 UPEC, CAMHB, mode of 6 replicates): ≤ 0.25 µg/mL
MIC ([5]; read-out: BMD MIC): ≤ 0.25 µg/mL
MIC ([6]; Salmonella enterica, ATCC14028 / TYPHI, read-out: BMD MIC): 0.004 µg/mL (≈ 0.0121 µM)

— paper PMC7311426, “An amphipathic peptide with antibiotic activity against multidrug-resistant Gram-negative bacteria” (Nature Communications, 2020)
